Measurements as given in patent publication EP0004810B1 (priority 1978, dated 1979).

Experiments:
comédons = test system: comédons; parameters: species or system souris femelles atrichis «rhinocéros»; settings: in vivo
PI[…] = assay type: cell-based, Pityrosporum ovale

| Compound | D (grand diamètre) (comédons) | Rapport d/D (comédons) | d (diamètre de l'orifice) (comédons) | C.M.I. (PI[…]) |
| --- | --- | --- | --- | --- |
| O=C(OOC(=O)c1ccccc1)c1ccccc1 [Peroxyde de benzoyle, peroxyde de benzoyle, reference compound] | 27,0±1,8 unités arbitraires | 0,54 | 14,7±2,1 unités arbitraires | – |
| O=C(OOC(=O)c1cccs1)c1cccs1 [Peroxyde de thénoyle, peroxyde de thénoyle] | 23,5±1,6 unités arbitraires | 0,90 | 21,1±1,7 unités arbitraires | 250 µg/mL |
